Assay [1] has as its target T1, ret kinase (intracellular portion of ret, amino acids 713-1072 of the short isoform) (Homo sapiens, UniProt P07949).
T1 sequence (P07949 713-1072 isoform P07949-2): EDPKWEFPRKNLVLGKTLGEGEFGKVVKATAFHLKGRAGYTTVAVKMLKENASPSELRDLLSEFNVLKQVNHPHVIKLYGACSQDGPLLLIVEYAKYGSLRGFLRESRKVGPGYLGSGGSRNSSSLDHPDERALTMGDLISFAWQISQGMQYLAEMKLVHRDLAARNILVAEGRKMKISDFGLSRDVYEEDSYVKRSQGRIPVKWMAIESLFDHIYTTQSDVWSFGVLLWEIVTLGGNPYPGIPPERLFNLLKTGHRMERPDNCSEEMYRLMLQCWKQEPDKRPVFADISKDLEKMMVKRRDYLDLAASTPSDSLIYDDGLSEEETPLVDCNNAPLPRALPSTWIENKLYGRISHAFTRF
The assay is described as follows: Ret kinase enzyme assay. The class given is biochemical. As for the experimental part: The ret kinase assay used the intracellular portion of ret (amino acids 713-1072 of the short isoform) produced in SF9 insect cells and purified on a nickel column. The assay was performed in a 45 μL volume with increasing concentrations of tyrosine kinase inhibitor (TKI) in triplicate in a 96-well plate format as follows: • 4.5 μL 500 mM Morpholinopropanesulfonic acid, pH 7.4 • 4.5 μL 100 μM adenosine triphosphate • 4.5 μL 250 mM MgCl2 • 1.0 μL γ-ATP^33 (1 microCi)(3000 Ci/mMol) • 2.04 (5 mg/ml) poly Glutamic acid-Tyrosine (Sigma (P-0275)) • 234H20 • 1.04 recombinant ret (100 ng) • 4.5 μL 10× Tyrosine kinase inhibitor
The components were incubated in triplicate for 30 minutes at room temperature within a 96-well plate in triplicate. The reaction was stopped by adding 45 μL 0.5% H3PO4 to each well. 75 μL of the reaction mixture was spotted onto phosphocellulose paper (Millipore, cat #MAPHN0B50) and was washed 3 times with 2004 0.5% H3PO4. Each phosphocellulase filter was transferred into a separate scintillation vial, 1 ml cytoscint fluid was added, and the sample counted on a Packard 1900TR liquid scintillation analyzer for 1 minute.
Concentrations of Example 1 tested in the ret enzyme kinase assay to determine the IC50 were 0, 0.5, 1, 5, 10, 50, 100, and 250 nM.

The target in the next assay is c-src (Homo sapiens, UniProt P12931). The assay is described as follows: c-src kinase inhibition. The class given is biochemical. The settings on record: read-out: c-src, range of activity, pIC50 values (converted).
For another assay, the target named is VEFGR2 (Homo sapiens, UniProt P35968). The experiment in a line: VEFGR2 kinase inhibition. The class given is biochemical. Particulars: read-out: VEFGR2, range of activity, pIC50 values (converted).
Assay [2] deals with TT cells, a medullary thyroid cancer cell line with constitutively activated ret. The assay is described as follows: MTT assay, TT cell proliferation. The class given is cell-based. The settings on record: Homo sapiens, 168 hours with compound. As for the experimental part: The potency of the compound of the invention was tested for its ability to inhibit cell proliferation and cell viability.
(In general: Formazan colour is commonly taken as a measure of viable cells.)

Where [3] appears, read: ret kinase enzyme assay, read-out: Ret, range of activity, pIC50 values (converted).

Where two headings read alike, the source gives them in different places. Bounds are passed on as bounds.

Chain of VEFGR2 (P35968 20-1356): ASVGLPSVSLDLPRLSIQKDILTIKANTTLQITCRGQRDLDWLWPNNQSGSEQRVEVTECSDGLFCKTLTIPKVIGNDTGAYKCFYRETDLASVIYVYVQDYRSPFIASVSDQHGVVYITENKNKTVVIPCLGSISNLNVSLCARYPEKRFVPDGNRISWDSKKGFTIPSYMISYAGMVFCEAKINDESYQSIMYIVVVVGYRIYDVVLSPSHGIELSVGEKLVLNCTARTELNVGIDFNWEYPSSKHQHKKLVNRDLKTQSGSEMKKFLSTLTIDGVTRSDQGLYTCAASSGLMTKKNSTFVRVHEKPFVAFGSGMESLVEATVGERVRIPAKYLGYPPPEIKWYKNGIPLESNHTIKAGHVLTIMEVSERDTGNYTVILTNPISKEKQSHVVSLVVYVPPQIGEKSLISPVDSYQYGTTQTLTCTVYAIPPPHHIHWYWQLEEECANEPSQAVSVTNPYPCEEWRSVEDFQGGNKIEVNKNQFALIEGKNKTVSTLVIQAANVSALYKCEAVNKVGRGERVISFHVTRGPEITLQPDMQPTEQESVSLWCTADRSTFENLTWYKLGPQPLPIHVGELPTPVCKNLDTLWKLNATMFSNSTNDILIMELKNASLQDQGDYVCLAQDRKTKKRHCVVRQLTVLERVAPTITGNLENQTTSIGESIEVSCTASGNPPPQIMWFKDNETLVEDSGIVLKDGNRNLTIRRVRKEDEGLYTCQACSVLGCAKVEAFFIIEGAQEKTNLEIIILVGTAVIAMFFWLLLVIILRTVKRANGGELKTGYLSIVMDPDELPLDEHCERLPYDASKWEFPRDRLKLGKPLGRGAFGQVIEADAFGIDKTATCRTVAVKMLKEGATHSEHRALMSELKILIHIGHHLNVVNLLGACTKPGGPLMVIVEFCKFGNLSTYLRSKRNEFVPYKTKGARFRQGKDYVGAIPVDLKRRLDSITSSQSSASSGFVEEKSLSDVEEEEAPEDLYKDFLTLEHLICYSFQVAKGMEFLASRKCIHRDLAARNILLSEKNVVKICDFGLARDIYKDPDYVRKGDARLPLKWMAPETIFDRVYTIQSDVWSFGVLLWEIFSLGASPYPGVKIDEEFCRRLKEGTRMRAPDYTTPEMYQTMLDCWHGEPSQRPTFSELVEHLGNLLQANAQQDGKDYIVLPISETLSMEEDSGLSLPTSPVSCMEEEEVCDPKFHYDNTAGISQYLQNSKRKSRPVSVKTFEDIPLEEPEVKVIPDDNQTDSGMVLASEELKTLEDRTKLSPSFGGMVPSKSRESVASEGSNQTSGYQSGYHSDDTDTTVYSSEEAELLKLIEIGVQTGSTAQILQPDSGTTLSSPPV
Chain of c-src (P12931 whole entry, species assumed): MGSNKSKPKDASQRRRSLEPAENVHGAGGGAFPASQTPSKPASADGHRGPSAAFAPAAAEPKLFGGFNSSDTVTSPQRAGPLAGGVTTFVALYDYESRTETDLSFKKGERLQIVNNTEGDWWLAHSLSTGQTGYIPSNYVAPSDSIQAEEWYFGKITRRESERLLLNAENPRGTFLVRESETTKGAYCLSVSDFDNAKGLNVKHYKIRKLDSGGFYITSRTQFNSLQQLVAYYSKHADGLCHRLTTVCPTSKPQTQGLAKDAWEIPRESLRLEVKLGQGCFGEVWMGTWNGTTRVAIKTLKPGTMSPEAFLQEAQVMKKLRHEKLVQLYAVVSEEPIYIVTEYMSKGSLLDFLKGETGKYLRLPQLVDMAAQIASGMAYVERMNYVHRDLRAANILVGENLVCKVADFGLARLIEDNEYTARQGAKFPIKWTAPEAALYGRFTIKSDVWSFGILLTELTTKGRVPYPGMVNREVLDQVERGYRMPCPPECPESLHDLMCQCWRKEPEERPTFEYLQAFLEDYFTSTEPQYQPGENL

Take `Oc1cccc(Nc2ccnc3cc(-c4ccccn4)ccc23)c1` [Example 1, 3-{[7-(2-pyridinyl)-4-quinolinyl]amino}phenol]: the IC50 (in assay [1] (setting [3]); on c-src) was less than 10 nM throughout.
Take `Oc1cc(Nc2ccnc3cc(-c4cc5ccccc5o4)ccc23)ccc1Br` [Example 3, 5-{[7-(1-benzofuran-2-yl)-4-quinolinyl]amino}-2-bromophenol]: the IC50 was 10 to 100 nM in assay [1] (setting [3]), 10 to 100 nM on c-src and less than 10 nM on VEFGR2.
For the compound `Oc1cc(Nc2ccnc3cc(-c4cccc(CNCCN5CCOCC5)c4)ccc23)c(F)cc1Cl` [Example 4, 2-chloro-4-fluoro-5-({7-[3-({[2-(4-morpholinyl)ethyl]amino}methyl)phenyl]-4-quinolinyl}amino)phenol], the IC50 is 10 to 100 nM in assay [1], less than 10 nM on c-src and less than 10 nM on VEFGR2.
As to `CS(=O)(=O)c1ccc2nccc(Nc3cc(O)c(F)cc3Cl)c2c1` [Example 6, 4-chloro-2-fluoro-5-{[6-(methysulfonuyl)-4-quinolinyl]amino}phenol], the IC50 was less than 1000 nM in assay [2] and less than 10 nM in assay [1] (setting [3]).
Turning to `OCc1nc(-c2ccc3c(Nc4cc(O)c(F)cc4Cl)ccnc3c2)cs1` [Example 7, 4-chloro-2-fluoro-5-({7-[2-(hydroxymethyl)-1,3-thiazol-4-yl]-4-quinolinyl}amino)phenol], the IC50 is 10 to 100 nM in assay [1] (setting [3]) and less than 10 nM at c-src.
For the compound `Cc1ccc(O)cc1Nc1ccnc2ccc(C(=O)NC(C)C)cc12` [Example 10], the IC50 in assay [1] (setting [3]) is 10 to 100 nM; on VEFGR2 it was 100 to 1000 nM.

For the origin of these results see patent publication US20110053934A1, “COMPOUNDS AND METHODS OF TREATMENT” (GLAXOSMITHKLINE LLC, priority 2007, published 2011).
